Results on four molecules are retold here after patent publication US20210254056A1, “IDENTIFICATION AND TARGETED MODULATION OF GENE SIGNALING NETWORKS” (CAMP4 THERAPEUTICS CORPORATION, priority 2017, published 2021).

Counter-ions that a name gives are not always drawn. Like-named read-outs stand apart in the source and are kept apart here.

The assay relates to hepatocytes. Put plainly: RNA-seq of hepatocytes treated with Phase III failure compounds. The conditions noted are these: for significant modulation of expression of disease genes / significant modulation of expression of any of the genes analyzed: RNA-seq; for significant modulation of expression of disease genes: q≤0.05, genes in the value or listed in the block; for significant modulation of expression of any of the genes analyzed: p≤0.05. The method, then:
RNA-seq was performed to determine the effects of the compounds on hepatocytes.
Significance was determined by the criteria of FPKM≥0.5, a log 2(fold-change)≥1, and a […].

For `Fc1ccc(C(OCCN2CCN(CCCc3ccccc3)CC2)c2ccc(F)cc2)cc1` [Vanoxerine (dihydrochloride), Vanoxerine], the “significant modulation of expression of disease genes” value (hepatocytes) is on record as “significantly (q≤0.05) modulate expression of HMOX1”. Moreover, the “B2M expression, RNA-seq result” value (gene B2M, hepatocytes) is −0.07. Also, for the setting “gene B9D2, hepatocytes”, the “B9D2 expression, RNA-seq result” value was 0.29. In addition, the “BAAT expression, RNA-seq result” value (gene BAAT, hepatocytes) amounted to 0.01. In addition, the “BBOX1 expression, RNA-seq result” value (gene BBOX1, hepatocytes) was found to be 0.01. Besides, for the setting “gene BBS10, hepatocytes”, the “BBS10 expression, RNA-seq result” value is recorded as −0.41. Also, the “BCHE expression, RNA-seq result” value (gene BCHE, hepatocytes) was −0.5. Besides, the “BCKDHB expression, RNA-seq result” value (gene BCKDHB, hepatocytes) is recorded as −0.06. The “BCKDK expression, RNA-seq result” value (gene BCKDK, hepatocytes) was 0.02. Besides, for the setting “gene BCO1, hepatocytes”, the “BCO1 expression, RNA-seq result” value is 0.08. Further, the “BCR expression, RNA-seq result” value (gene BCR, hepatocytes) is listed as 0.04. Moreover, the “BLNK expression, RNA-seq result” value (gene BLNK, hepatocytes) turned out to be 0.18. Further, where the note is “gene BLOC1S3, hepatocytes”, the “BLOC1S3 expression, RNA-seq result” value is 0.46. For the same molecule, for the setting “gene BMPR1A, hepatocytes”, the “BMPR1A expression, RNA-seq result” value is listed as 0. The “BRAF expression, RNA-seq result” value (gene BRAF, hepatocytes) turned out to be 0.2. Further, for the setting “gene BSCL2, hepatocytes”, the “BSCL2 expression, RNA-seq result” value is −0.45. The “BTD expression, RNA-seq result” value (gene BTD, hepatocytes) is recorded as −0.16. For the setting “gene C4A, hepatocytes”, the “C4A expression, RNA-seq result” value amounted to 0.05. Under “gene C9, hepatocytes”, the “C9 expression, RNA-seq result” value was −0.2. Further, the “C10orf10 expression, RNA-seq result” value (gene C10orf10, hepatocytes) is reported as 0.02. Moreover, the “C10orf11 expression, RNA-seq result” value (gene C10orf11, hepatocytes) amounted to 0.18. For the same molecule, the “C15orf41 expression, RNA-seq result” value (gene C15orf41, hepatocytes) is recorded as 0.13. Further, the “CA2 expression, RNA-seq result” value (gene CA2, hepatocytes) was determined as 0.53. The “CA5A expression, RNA-seq result” value (gene CA5A, hepatocytes) turned out to be 0.24. The “CA12 expression, RNA-seq result” value (gene CA12, hepatocytes) came to 0.77. Besides, the “CAV1 expression, RNA-seq result” value (gene CAV1, hepatocytes) is recorded as −0.47. Moreover, the “CCND1 expression, RNA-seq result” value (gene CCND1, hepatocytes) is −0.33. For the same molecule, the “CD46 expression, RNA-seq result” value (gene CD46, hepatocytes) is −0.14. For the same molecule, the “CD81 expression, RNA-seq result” value (gene CD81, hepatocytes) is recorded as 0.3. The “CD320 expression, RNA-seq result” value (gene CD320, hepatocytes) is on record as 0.17. Further, the “CDAN1 expression, RNA-seq result” value (gene CDAN1, hepatocytes) is listed as 0.25. Besides, the “CDH1 expression, RNA-seq result” value (gene CDH1, hepatocytes) is listed as −0.29. Also, the “CEP19 expression, RNA-seq result” value (gene CEP19, hepatocytes) is listed as −0.07. In addition, the “CEP83 expression, RNA-seq result” value (gene CEP83, hepatocytes) was −0.12. Besides, the “CEP164 expression, RNA-seq result” value (gene CEP164, hepatocytes) stood at 0.12. For the same molecule, the “CEP290 expression, RNA-seq result” value (gene CEP290, hepatocytes) was −0.14. Also, the “CFB expression, RNA-seq result” value (gene CFB, hepatocytes) is 0.02. The “CFHR2 expression, RNA-seq result” value (gene CFHR2, hepatocytes) was −0.46. For the same molecule, under “gene CHRM3, hepatocytes”, the “CHRM3 expression, RNA-seq result” value is recorded as −0.06. Further, the “CIDEC expression, RNA-seq result” value (gene CIDEC, hepatocytes) came out at 0.1. Also, the “CLDN1 expression, RNA-seq result” value (gene CLDN1, hepatocytes) was −0.37. In addition, the “COG1 expression, RNA-seq result” value (gene COG1, hepatocytes) is listed as 0.06.
As to `C1=C/COCc2cc(ccc2OCCN2CCCC2)Nc2nccc(n2)-c2cccc(c2)COC/1` [Pacritinib (SB1518), Pacritinib], the “significant modulation of expression of disease genes” value (hepatocytes) is listed as “significantly (q≤0.05) modulate expression”.
For the molecule `CCCCC(C(=O)c1ccccc1)N1CCCC1` (centres unmarked) [a-PHP], the “significant changes in gene expression” value is reported as “not observed to cause any significant changes in gene expression”. Besides, under “hepatocytes”, the “significant modulation of expression of any of the genes analyzed” value was “not observed to significantly modulate expression”.
In the case of `CC(C)(CO)c1cc2cc(NC(=O)C3(c4ccc5c(c4)OC(F)(F)O5)CC3)c(F)cc2n1C[C@@H](O)CO` [VX-661 (tezacaptor), tezacaptor], the “significant changes in gene expression” value (RNA-seq of Table 36, FPKM≥0.5, log 2(fold-change)≥1, q-value≤0.05) is on record as “not observed to cause any significant changes in gene expression”. The “significant modulation of expression of any of the genes analyzed” value (hepatocytes) is on record as “not observed to significantly modulate expression”.
